Test results taken from US20160166577A1, “TREATMENT OF PULMONARY FIBROSIS USING AN INHIBITOR OF CBP/CATENIN” (PRISM Pharma Co., Ltd., priority 2012, published 2016).

Columns and labels:
[1] = system: bleomycin-induced pulmonary fibrosis; experiment: Bleomycin (BLM)-induced pulmonary fibrosis in mice; format: in vivo, C57BL/6 mice; settings: for antifibrotic effect in six-week course of BLM-induced fibrosis: Example 3, 5 mg/kg/day over weeks 4-6, FIG. 4
Method: C57BL/6 mice received subcutaneous implants of an ALZET mini-osmotic pump (Durect Corp., California) that released BLM continuously (Example 1, […]; Example 2, 120 U/kg/mouse/day) for seven days (Day 1-Day 7), to induce lung fibrosis (Lab Invest. 50:487-488, 1984; Am. J. Resp. Cell Mol. Biol. 45:489-497, 2011). Bleomycin induces epithelial injury, causing increased pulmonary inflammation from Days 1-21, peaking at about Day 10 before subsiding. Fibrosis begins at about Day 8 and gradually increases until Day 28.
BLM mice treated with test compound received a second subcutaneous ALZET mini-osmotic pump (Durect Corp., California) that released Compound A continuously. Compound A, 4-(((6S,9S,9aS)-1-(benzylcarbamoyl)-2,9-dimethyl-4,7-dioxo-8-(quinolin-8-ylmethyl)octahydro-1H-pyrazino[2,1-c][1,2,4]triazin-6-yl)methyl)phenyl dihydrogen phosphate.
Ashcroft score (J. Clin. Pathol. 41:467-470, 1988) was calculated from tissue sections of right lung stained by H&E. Left lung homogenates were analyzed for soluble collagen content using SIRCOL Collagen Assay kit (Biocolor Ltd., Carrickfergus, UK).
In Example 1, Compound A was administered 5 mg/kg/day over days 15-28.
In Example 2, Compound A was administered 1 mg/kg/day over Days 1-28 (“whole”), Days 1-14 (“early”) or Days 15-28 (“late”). […] Bleo, bleomycin treatment alone; Bleo+Cmpd A whole, bleomycin plus Compound A administered throughout 4 week period; Bleo+early 2w, bleomycin plus Compound A administered over weeks 1-2; Bleo+late 2w, bleomycin plus Compound A administered over weeks 3-4.
In Example 3, a six-week rather than four-week course of BLM-induced fibrosis was studied. In this example, either Compound A (5 mg/kg/day) or ICG-001 (5 mg/kg/day), another β-catenin inhibitor, was administered to BLM-treated mice over weeks 4-6.

[2] = system: bleomycin-induced lung fibrosis; settings: cited from earlier work
[3] = biological target: β-catenin/CBP interaction (Homo sapiens, UniProt Q92793); settings: cited from earlier work
Sequence of β-catenin/CBP interaction (Q92793 whole entry): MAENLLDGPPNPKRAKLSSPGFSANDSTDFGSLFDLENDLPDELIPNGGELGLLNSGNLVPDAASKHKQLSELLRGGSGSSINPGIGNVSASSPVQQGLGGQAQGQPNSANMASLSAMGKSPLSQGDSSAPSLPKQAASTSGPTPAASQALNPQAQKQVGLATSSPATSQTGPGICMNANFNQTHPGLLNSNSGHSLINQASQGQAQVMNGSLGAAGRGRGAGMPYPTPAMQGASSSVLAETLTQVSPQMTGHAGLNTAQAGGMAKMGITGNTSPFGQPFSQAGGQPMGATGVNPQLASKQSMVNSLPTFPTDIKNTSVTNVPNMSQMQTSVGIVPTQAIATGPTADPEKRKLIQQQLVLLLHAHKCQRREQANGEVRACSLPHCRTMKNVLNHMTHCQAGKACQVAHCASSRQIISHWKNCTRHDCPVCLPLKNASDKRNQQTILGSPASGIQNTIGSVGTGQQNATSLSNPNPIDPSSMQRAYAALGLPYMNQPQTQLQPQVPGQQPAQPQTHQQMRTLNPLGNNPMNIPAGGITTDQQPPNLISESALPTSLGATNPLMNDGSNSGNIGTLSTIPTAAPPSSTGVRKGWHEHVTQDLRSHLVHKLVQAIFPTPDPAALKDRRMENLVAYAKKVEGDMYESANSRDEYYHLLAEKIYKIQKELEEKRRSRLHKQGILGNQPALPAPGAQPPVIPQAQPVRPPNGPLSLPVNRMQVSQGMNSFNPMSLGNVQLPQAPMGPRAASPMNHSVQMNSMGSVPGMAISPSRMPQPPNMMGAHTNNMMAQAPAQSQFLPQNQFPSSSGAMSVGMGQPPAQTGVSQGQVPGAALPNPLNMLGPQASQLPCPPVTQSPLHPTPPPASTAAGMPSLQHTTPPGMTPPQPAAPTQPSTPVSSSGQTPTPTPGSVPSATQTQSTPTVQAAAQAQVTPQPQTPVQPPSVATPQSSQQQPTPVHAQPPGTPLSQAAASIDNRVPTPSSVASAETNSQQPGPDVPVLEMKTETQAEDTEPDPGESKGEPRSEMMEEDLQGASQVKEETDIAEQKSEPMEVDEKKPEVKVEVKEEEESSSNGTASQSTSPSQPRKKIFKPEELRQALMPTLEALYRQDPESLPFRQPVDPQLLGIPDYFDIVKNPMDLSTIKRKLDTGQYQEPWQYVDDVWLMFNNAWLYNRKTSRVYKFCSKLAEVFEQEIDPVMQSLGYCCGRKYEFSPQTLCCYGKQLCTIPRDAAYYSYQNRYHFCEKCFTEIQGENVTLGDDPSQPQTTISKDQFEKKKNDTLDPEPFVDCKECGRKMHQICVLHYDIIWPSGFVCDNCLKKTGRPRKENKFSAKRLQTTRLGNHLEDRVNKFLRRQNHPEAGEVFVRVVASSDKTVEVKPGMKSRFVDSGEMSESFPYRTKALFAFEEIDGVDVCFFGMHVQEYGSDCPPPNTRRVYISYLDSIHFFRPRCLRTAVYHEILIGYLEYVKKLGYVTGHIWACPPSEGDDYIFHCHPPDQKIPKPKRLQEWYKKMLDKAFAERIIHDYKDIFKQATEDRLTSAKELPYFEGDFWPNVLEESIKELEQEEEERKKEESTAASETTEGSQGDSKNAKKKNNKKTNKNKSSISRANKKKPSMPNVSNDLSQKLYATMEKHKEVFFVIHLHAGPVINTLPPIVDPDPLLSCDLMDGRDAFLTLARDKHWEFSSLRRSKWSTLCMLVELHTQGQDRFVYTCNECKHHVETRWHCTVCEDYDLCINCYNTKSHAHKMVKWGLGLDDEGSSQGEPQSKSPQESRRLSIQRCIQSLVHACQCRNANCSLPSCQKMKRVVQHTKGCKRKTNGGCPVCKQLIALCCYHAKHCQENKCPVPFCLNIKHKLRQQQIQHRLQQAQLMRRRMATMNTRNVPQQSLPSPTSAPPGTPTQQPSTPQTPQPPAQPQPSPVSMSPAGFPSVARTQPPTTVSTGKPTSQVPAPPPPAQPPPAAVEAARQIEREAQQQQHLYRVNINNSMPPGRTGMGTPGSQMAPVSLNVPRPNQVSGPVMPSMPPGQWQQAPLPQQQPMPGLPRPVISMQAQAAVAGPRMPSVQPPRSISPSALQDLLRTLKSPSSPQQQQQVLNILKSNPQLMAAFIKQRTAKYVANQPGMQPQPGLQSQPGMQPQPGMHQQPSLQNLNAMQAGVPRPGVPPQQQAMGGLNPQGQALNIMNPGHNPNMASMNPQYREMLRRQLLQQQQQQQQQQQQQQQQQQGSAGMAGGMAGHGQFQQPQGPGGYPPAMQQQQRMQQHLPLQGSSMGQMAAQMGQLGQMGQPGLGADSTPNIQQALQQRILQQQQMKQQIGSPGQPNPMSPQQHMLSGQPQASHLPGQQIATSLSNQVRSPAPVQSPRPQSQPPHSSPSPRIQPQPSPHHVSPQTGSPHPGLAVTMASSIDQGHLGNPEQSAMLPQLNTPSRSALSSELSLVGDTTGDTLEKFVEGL

[4] = system: lung epithelial cell line LA-4; experiment: TGF-β-induced epithelial-to-mesenchymal transition (EMT) in LA-4 cells; format: cell-based, murine
Method: In Example 4, the murine lung epithelial cell line, LA-4, available from the American Type Culture Collection (ATCC; Manassas, Va.), was treated with TGF-β (5 ng/ml) to induce epithelial-to-mesenchymal transition (EMT), a marker for fibrosis (J Clin Invest. 119:1420-1428, 2009). TGF-β treated cells were treated with no or with increasing concentrations (0.01 μM, 0.05 μM, 0.1 μM, or 0.5 μM) of Compound C. Compound C, (6S,9S,9aS)—N-benzyl-6-(4-hydroxybenzyl)-2,9-dimethyl-4,7-dioxo-8-(quinolin-8-ylmethyl)octahydro-1H-pyrazino[2,1-c][1,2,4]triazine-1-carboxamide.

Row | SMILES | lung fibrosis by histological examination ([1]; Example 1, 5 mg/kg, days 14-28, FIG. 2C) | lung fibrosis (Ashcroft score) ([1]; Example 1, 5 mg/kg/day s.c. osmotic pump, days 15-28 (days 14-28), FIG. 1A, vs bleomycin alone) | collagen deposition (SIRCOL collagen assay, left lung) ([1]; Example 1, 5 mg/kg/day, days 15-28 (days 14-28), FIG. 1B, vs bleomycin alone) | antifibrotic effect, early (inflammatory) phase treatment ([1]; Example 2, 1 mg/kg/day, Days 1-14 (early), FIG. 3, vs no test compound) | antifibrotic effect, late (fibrotic) phase treatment ([1]; Example 2, 1 mg/kg/day, Days 15-28 (late), FIG. 3) | late phase treatment compared with treatment throughout the entire period ([1]; Example 2, 1 mg/kg/day, Days 15-28 vs Days 1-28 (whole), FIG. 3) | antifibrotic effect in six-week course of BLM-induced fibrosis [1] | bleomycin-induced lung fibrosis ([2]; 5 mg/kg per day, mice) | β-catenin signaling ([2]; 5 mg/kg per day, mice) | fibrosis, administration concurrent with bleomycin ([2]; concurrent administration) | established fibrosis, late administration ([2]; late administration) | survival, late administration ([2]; late administration) | selectivity β-catenin/CBP vs β-catenin/p300 interaction [3] | α-SMA expression by fluorescent microscopy ([4]; TGF-β 5 ng/ml plus compound 0.01 μM, FIG. 6) | TGF-β-induced alpha smooth muscle actin (α-SMA) formation / EMT ([4]; TGF-β 5 ng/ml, increasing concentrations 0.01, 0.05, 0.1, 0.5 μM, FIG. 5)
1 | C[C@H]1[C@H]2N(C(=O)CN(C)N2C(=O)NCc2ccccc2)[C@@H](Cc2ccc(OP(=O)(O)O)cc2)C(=O)N1Cc1cccc2cccnc12 [Compound A, 4-(((6S,9S,9aS)-1-(benzylcarbamoyl)-2,9-dimethyl-4,7-dioxo-8-(quinolin-8-ylmethyl)octahydro-1H-pyrazino[2,1-c][1,2,4]triazin-6-yl)methyl)phenyl dihydrogen phosphate] | reduces lung fibrosis | reduces lung fibrosis | reduced | not significantly beneficial | significantly reduced lung fibrosis | equal to, or even superior to | has an antifibrotic effect | – | – | – | – | – | – | – | –
2 | O=C1[C@H](Cc2ccc(O)cc2)N2C(=O)CCN(C(=O)NCc3ccccc3)[C@H]2CN1Cc1cccc2ccccc12 [ICG-001] | – | – | – | – | – | – | antifibrotic effect, unlike β-catenin inhibitor ICG-001 | attenuates bleomycin-induced lung fibrosis | significantly inhibits β-catenin signaling | prevents fibrosis | reverse established fibrosis | significantly improve survival | selectively blocks the β-catenin/CBP interaction without interfering with the β-catenin/p300 interaction | – | –
3 | C[C@H]1[C@H]2N(C(=O)CN(C)N2C(=O)NCc2ccccc2)[C@@H](Cc2ccc(O)cc2)C(=O)N1Cc1cccc2cccnc12 [Compound C, (6S,9S,9aS)—N-benzyl-6-(4-hydroxybenzyl)-2,9-dimethyl-4,7-dioxo-8-(quinolin-8-ylmethyl)octahydro-1H-pyrazino[2,1-c][1,2,4]triazine-1-carboxamide] | – | – | – | – | – | – | – | – | – | – | – | – | – | decreased alpha smooth muscle actin (α-SMA) expression | inhibit TGF-β-induced alpha smooth muscle actin (α-SMA) formation
